Measured values from US20110144159A1, “ETHER BENZYLIDENE PIPERIDINE ARYL CARBOXAMIDE COMPOUNDS USEFUL AS FAAH INHIBITORS” (Pfizer Inc, priority 2008, published 2011).

Target: T1, Human FAAH (Homo sapiens, UniProt O00519)
T1 construct: made in house
T1 sequence (O00519 32-579 limits assumed): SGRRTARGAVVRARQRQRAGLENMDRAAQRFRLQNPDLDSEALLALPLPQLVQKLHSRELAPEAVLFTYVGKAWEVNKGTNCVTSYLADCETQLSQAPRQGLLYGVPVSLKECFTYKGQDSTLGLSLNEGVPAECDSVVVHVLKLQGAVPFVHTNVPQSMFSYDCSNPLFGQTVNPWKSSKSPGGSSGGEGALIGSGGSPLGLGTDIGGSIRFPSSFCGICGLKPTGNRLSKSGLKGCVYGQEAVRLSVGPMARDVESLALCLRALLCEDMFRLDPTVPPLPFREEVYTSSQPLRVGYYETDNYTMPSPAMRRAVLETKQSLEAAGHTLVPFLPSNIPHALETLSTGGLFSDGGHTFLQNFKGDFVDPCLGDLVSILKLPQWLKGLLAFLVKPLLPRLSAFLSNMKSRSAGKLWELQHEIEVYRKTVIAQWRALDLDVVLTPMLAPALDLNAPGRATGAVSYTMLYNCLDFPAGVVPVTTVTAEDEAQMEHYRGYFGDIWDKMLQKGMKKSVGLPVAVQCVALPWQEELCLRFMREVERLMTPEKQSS
Assay: FAAH assay (glutamate dehydrogenase-coupled, oleamide substrate, absorbance at 340 nm)
Assay type: biochemical
Conditions: for hFAAH KInact/K: irreversible inhibition potency
Method: A FAAH assay may be carried out in 384-well clear polystyrene plates in a total volume of 50 μl per well. All percents are by volume. To each well was placed the reaction mixture (40 μl) containing 1-4 nM FAAH, 50 mM NaPi, pH 7.4, 3 mM α-ketoglutarate, 0.15 mM NADH, 7.5 U/ml glutamate dehydrogenase, 2 mM ADP, 1 mM EDTA, and 0.1% Triton X-100 (The concentration shown for each component was the final concentration in the assay). To this mixture was added 5 μl of a compound of Examples 1 to 20 at various concentrations prepared in 50% DMSO (or 5 μl 50% DMSO for controls). This was immediately followed by the addition of 5 μl oleamide (500 μM) dissolved in 75% EtOH/25% DMSO and the reaction mixture was mixed for 1.5 min. The final concentrations of DMSO and EtOH in the assay are each 7.5%. The reactions was then incubated at 30° C. and the absorbance at 340 nm was collected over a period of 90 min with readings taken in 30-second intervals using SpectraMax Plus^384 Microplate Spectrophotometer (Molecular Devices, Sunnyvale, Calif.). Human FAAH used in the assay was prepared as described in the patent application WO 2006/067613. The purity of the enzyme used was greater than 98% based on an analysis by SDS-polyacrylamide gel electrophoresis followed by Coomassie Blue staining.
Initial velocity data (V) is obtained from the slopes of the initial progressive curves. They are plotted as a function of substrate concentration and fit to the Michaelis-Menten equation (1) using Prism (GraphPad Software, Inc., San Diego, Calif.) software to obtain Km and Vmax values.
To obtain potencies of irreversible inhibitors, progressive curves consistent with first order inhibition kinetics (two-step irreversible inhibition mechanism) are fit to equation (2) by nonlinear least squares regressions to determine kobs values at each inhibitor concentration, where [P]t is the absorbance at time t, V0 is a constant related to the steady state rate of the uninhibited reaction, and kobs is the first order rate constant for enzyme inactivation. The inhibitor dissociation constant (Ki) and the first order rate
constant of enzyme inactivation at infinite inhibitor concentration (kinact) are then obtained by fitting the kobs vs. [I] curves to equation (3).

Row | Compound | hFAAH KInact/K [M⁻¹ s⁻¹] | kinact/KI (further compounds, read-out: hFAAH_Kinact/Ki—StL) [M⁻¹ s⁻¹]
1 | O=C(Nc1cccnn1)N1CCC(=Cc2cccc(OCC3CCOCC3)c2)CC1 [Example 76, N-pyridazin-3-yl-4-[3-(tetrahydro-2H-pyran-4-ylmethoxy)benzylidene]piperidine-1-carboxamide] | 2548 | 
2 | CC(C)(C)CCOc1cccc(C=C2CCN(C(=O)Nc3cccnn3)CC2)c1 [Example 48, 4-[3-(3,3-dimethylbutoxy)benzylidene]-N-pyridazin-3-ylpiperidine-1-carboxamide] | 2580 | 
3 | 4-[3-(1-methyl-2-phenoxyethoxy)benzylidene]-N-pyridazin-3-ylpiperidine-1-carboxamide [Example 90] | 3971 | 
4 | O=C(Nc1cccnn1)N1CCC(=Cc2cccc(OCC3CCC(C(F)(F)F)CC3)c2)CC1 (stereo not shown) [Example 103, N-pyridazin-3-yl-4-(3-{[4-(trifluoromethyl)cyclohexyl]methoxy}benzylidene)piperidine-1-carboxamide] | 1537 | 
5 | C=CC(C)Oc1cccc(C=C2CCN(C(=O)Nc3cccnn3)CC2)c1 (stereo not shown) [Example 26, 4-{3-[(1-methylprop-2-en-1-yl)oxy]benzylidene}-N-pyridazin-3-ylpiperidine-1-carboxamide] | <10.0 | 
6 | CC1CCC(Oc2cccc(C=C3CCN(C(=O)Nc4cccnc4)CC3)c2)CC1 (stereo not shown) [Example 36, 4-{3-[(4-methylcyclohexyl)oxy]benzylidene}-N-pyridin-3-ylpiperidine-1-carboxamide] | 992 | 
7 | O=C(Nc1cccnc1)N1CCC(=Cc2cccc(OC3CC3)c2)CC1 [Example 29, 4-[3-(cyclopropyloxy)benzylidene]-N-pyridin-3-ylpiperidine-1-carboxamide] | 1300 | 
8 | CO[C@@H](COc1cccc(C=C2CCN(C(=O)Nc3cccnn3)CC2)c1)c1ccccc1 [Example 58, 4-{3-[(2R)-2-methoxy-2-phenylethoxy]benzylidene}-N-pyridazin-3-ylpiperidine-1-carboxamide] | 473 | 
9 | O=C(Nc1cccnn1)N1CCC(=Cc2cccc(OCCC3CC3)c2)CC1 [Example 83, 4-[3-(2-cyclopropylethoxy)benzylidene]-N-pyridazin-3-ylpiperidine-1-carboxamide] | 22138 | 
10 | O=C(Nc1cccnn1)N1CCC(=Cc2cccc(OC3CCCC3)c2)CC1 [Example 13, 4-[3-(cyclopentyloxy)benzylidene]-N-pyridazin-3-ylpiperidine-1-carboxamide] | 2570 | 
11 | CC(C)CCOc1cccc(C=C2CCN(C(=O)Nc3cccnn3)CC2)c1 [Example 62, 4-[3-(3-methylbutoxy)benzylidene]-N-pyridazin-3-ylpiperidine-1-carboxamide] | 15200 | 
12 | O=C(Nc1cccnn1)N1CCC(=Cc2cccc(OCc3ccc(C(F)(F)F)cn3)c2)CC1 [Example 73, N-pyridazin-3-yl-4-(3-{[5-(trifluoromethyl)pyridin-2-yl]methoxy}benzylidene)piperidine-1-carboxamide] | 1470 | 
13 | O=C(Nc1cccnn1)N1CCC(=Cc2cccc(OCC3CCC(F)(F)CC3)c2)CC1 [Example 82, 4-{3-[(4,4-difluorocyclohexyl)methoxy]benzylidene}-N-pyridazin-3-ylpiperidine-1-carboxamide] | 6850 | 
14 | O=C(Nc1cccnc1)N1CCC(=Cc2cccc(OC3CCCC3)c2)CC1 [Example 11, 4-[3-(cyclopentyloxy)benzylidene]-N-pyridin-3-ylpiperidine-1-carboxamide] | 1900 | 
15 | O=C(Nc1cccnn1)N1CCC(=Cc2ccc3c(c2)OCO3)CC1 [Example 3, 4-(1,3-benzodioxol-5-ylmethylene)-N-pyridazin-3-ylpiperidine-1-carboxamide] | 2870 | 
16 | CCCC(CC)Oc1cccc(C=C2CCN(C(=O)Nc3cccnc3)CC2)c1 (stereo not shown) [Example 42, 4-[3-(1-ethylbutoxy)benzylidene]-N-pyridin-3-ylpiperidine-1-carboxamide] | 551 | 

Row | Compound | hFAAH KInact/K [M⁻¹ s⁻¹] | kinact/KI (further compounds, read-out: hFAAH_Kinact/Ki—StL) [M⁻¹ s⁻¹]
17 | CC(C)OCCOc1cccc(C=C2CCN(C(=O)Nc3cccnn3)CC2)c1 [Example 47, 4-[3-(2-isopropoxyethoxy)benzylidene]-N-pyridazin-3-ylpiperidine-1-carboxamide] | 11900 | 
18 | O=C(Nc1cccnc1)N1CCC(=Cc2cccc(OC3CCOC3)c2)CC1 (stereo not shown) [Example 20, N-pyridin-3-yl-4-[3-(tetrahydrofuran-3-yloxy)benzylidene]piperidine-1-carboxamide] | 451 | 
19 | CCCC(CC)Oc1cccc(C=C2CCN(C(=O)Nc3cccnn3)CC2)c1 (stereo not shown) [Example 41, 4-[3-(1-ethylbutoxy)benzylidene]-N-pyridazin-3-ylpiperidine-1-carboxamide] | 1800 | 
20 | O=C(Nc1cccnn1)N1CCC(=Cc2cccc(OCCc3ccc(F)cc3)c2)CC1 [Example 92, 4-{3-[2-(4-fluorophenyl)ethoxy]benzylidene}-N-pyridazin-3-ylpiperidine-1-carboxamide] | 5205 | 
21 | Cc1ccc(COc2cccc(C=C3CCN(C(=O)Nc4cccnn4)CC3)c2)cn1 [Example 74, 4-{3-[(6-methylpyridin-3-yl)methoxy]benzylidene}-N-pyridazin-3-ylpiperidine-1-carboxamide] | 188 | 
22 | CC(C)Oc1cccc(C=C2CCN(C(=O)Nc3cccnc3)CC2)c1 [Example 37, 4-(3-isopropoxybenzylidene)-N-pyridin-3-ylpiperidine-1-carboxamide] | 1380 | 
23 | Cc1cc(COc2cccc(C=C3CCN(C(=O)Nc4cccnn4)CC3)c2)no1 [Example 54, 4-{3-[(5-methylisoxazol-3-yl)methoxy]benzylidene}-N-pyridazin-3-ylpiperidine-1-carboxamide] | 1880 | 
24 | O=C(Nc1cccnn1)N1CCC(=Cc2cccc(OCCc3ccsc3)c2)CC1 [Example 78, N-pyridazin-3-yl-4-{3-[2-(3-thienyl)ethoxy]benzylidene}piperidine-1-carboxamide] | 35803 | 
25 | CC1(COc2cccc(C=C3CCN(C(=O)Nc4cccnn4)CC3)c2)CC1 [Example 93, 4-{3-[(1-methylcyclopropyl)methoxy]benzylidene}-N-pyridazin-3-ylpiperidine-1-carboxamide] | 2090 | 
26 | CN1CCCCC1COc1cccc(C=C2CCN(C(=O)Nc3cccnn3)CC2)c1 (stereo not shown) [Example 55, 4-{3-[(1-methylpiperidin-2-yl)methoxy]benzylidene}-N-pyridazin-3-ylpiperidine-1-carboxamide] | 35 | 
27 | CC1(C)CCC(Oc2cccc(C=C3CCN(C(=O)Nc4cccnn4)CC3)c2)CC1 [Example 81, 4-{3-[(4,4-dimethylcyclohexyl)oxy]benzylidene}-N-pyridazin-3-ylpiperidine-1-carboxamide] | 3744 | 
28 | O=C(Nc1cccnn1)N1CCC(=Cc2cccc(OCC3CCCC3)c2)CC1 [Example 86, 4-[3-(cyclopentylmethoxy)benzylidene]-N-pyridazin-3-ylpiperidine-1-carboxamide] | 6267 | 
29 | COC(COc1cccc(C=C2CCN(C(=O)Nc3cccnn3)CC2)c1)c1ccccc1 (stereo not shown) [Example 56, 4-[3-(2-methoxy-2-phenylethoxy)benzylidene]-N-pyridazin-3-ylpiperidine-1-carboxamide] | 149 | 
30 | COc1ccc(NC(=O)N2CCC(=Cc3cccc(OCC4CCCCO4)c3)CC2)cn1 (stereo not shown) [N-(6-methoxypyridin-3-yl)-4-[3-(tetrahydro-2H-pyran-2-ylmethoxy)benzylidene]piperidine-1-carboxamide] |  | 950
31 | CCC(CC)Oc1cccc(C=C2CCN(C(=O)Nc3cccnc3)CC2)c1 [Example 14, 4-[3-(1-ethylpropoxy)benzylidene]-N-pyridin-3-ylpiperidine-1-carboxamide] | 718 | 
